Consider eight compounds from PubChem BioAssay (NCI).

Test systems include SF-539 CNS; SK-MEL-28 melanoma; A549 NSCLC; NCI-H226 lung; UACC-257 melanoma; SK-OV-3 ovarian; IGROV1 ovarian; M14 melanoma; ACHN renal; HOP-92 NSCLC.
Experiment in all cases: inhibition of tumour cell growth, NCI panel, 48 h

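Five concentrations, 48 hours, 96-well plates. GI50: concentration for 50% inhibition of growth. TGI: total growth inhibition.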

On to `CC(=O)/C(=C/n1c(=S)[nH]c2ccccc21)C(=O)Nc1ccccc1C`, for which the TGI in the assay with SF-539 CNS, in the assay on SK-MEL-28 melanoma, with A549 NSCLC, in the assay on NCI-H226 lung, in the assay on UACC-257 melanoma and in the assay with SK-OV-3 ovarian was above 100 µM throughout. For the same compound, the TGI with IGROV1 ovarian, in the assay with M14 melanoma, in the assay with ACHN renal and with HOP-92 NSCLC was above 100 µM in each case.
Consider `O=C(O)C1C2CCC(O2)C1C(=O)N1CCCCC1` (stereo not given), for which the TGI in the assay on SF-539 CNS was 23.5 µM; in the assay on SK-MEL-28 melanoma, 19.5 µM; in the assay on A549 NSCLC it was above 100 µM; in the assay with NCI-H226 lung it was 16.6 µM; in the assay with UACC-257 melanoma it was 32.4 µM; with SK-OV-3 ovarian it was 42.9 µM. Further, the TGI in the assay on IGROV1 ovarian came out at 74.6 µM; in the assay with M14 melanoma, 26.2 µM; in the assay with ACHN renal, 17 µM; in the assay on HOP-92 NSCLC, 7.33 µM.
Regarding `COc1ccc(-c2cc(=O)c3c(C)cc(C)nc3[nH]2)cc1`, the TGI was above 100 µM in the assay with SF-539 CNS; above 100 µM with SK-MEL-28 melanoma; above 100 µM in the assay on A549 NSCLC; above 100 µM in the assay with NCI-H226 lung; 85.3 µM with UACC-257 melanoma; above 100 µM with SK-OV-3 ovarian. The TGI is 84.8 µM with IGROV1 ovarian, above 100 µM in the assay on M14 melanoma, above 100 µM in the assay with ACHN renal and above 100 µM with HOP-92 NSCLC.
Turning to `O=C1C=C(NCCNC(=S)Nc2ccccc2)c2nccc3c2c1nc1ccccc13`, the GI50 with SF-539 CNS was 49.1 µM; in the assay with SK-MEL-28 melanoma it was above 100 µM; in the assay with A549 NSCLC it was 44.7 µM; in the assay on NCI-H226 lung, 70 µM; in the assay with UACC-257 melanoma it was 93.2 µM; with SK-OV-3 ovarian, above 100 µM. The GI50 in the assay on IGROV1 ovarian was 56.8 µM; in the assay on M14 melanoma, 39.3 µM; with ACHN renal, 38.6 µM; in the assay with HOP-92 NSCLC it was above 100 µM. Further, the TGI with SF-539 CNS, in the assay with SK-MEL-28 melanoma, in the assay on A549 NSCLC, in the assay on NCI-H226 lung, in the assay with UACC-257 melanoma and in the assay on SK-OV-3 ovarian was above 100 µM throughout. For the same compound, the TGI in the assay on IGROV1 ovarian, in the assay on M14 melanoma, in the assay on ACHN renal and in the assay on HOP-92 NSCLC was above 100 µM each time.
On to `CCCCC1CC(c2cccc([N+](=O)[O-])c2)=NO1` (stereo not given), for which the TGI with SF-539 CNS, in the assay on SK-MEL-28 melanoma, in the assay with A549 NSCLC, with NCI-H226 lung, in the assay with UACC-257 melanoma and with SK-OV-3 ovarian was above 100 µM in each case. Besides, the TGI with IGROV1 ovarian, in the assay on M14 melanoma, in the assay with ACHN renal and in the assay with HOP-92 NSCLC was above 100 µM throughout.
`Cc1ccc(S(=O)(=O)NCCNC2=CC(=O)c3nc4ccccc4c4ccnc2c34)cc1`: the GI50 in the assay on SF-539 CNS is 19.1 µM; in the assay with SK-MEL-28 melanoma it was 26.7 µM; in the assay on A549 NSCLC, 15.2 µM; with NCI-H226 lung it was 22.2 µM; with UACC-257 melanoma, 19.5 µM; with SK-OV-3 ovarian, 33.1 µM. For the same compound, the GI50 in the assay with IGROV1 ovarian is 19.9 µM; with M14 melanoma, 15.7 µM; with ACHN renal, 22.3 µM; with HOP-92 NSCLC, 20.3 µM. In addition, the TGI in the assay with SF-539 CNS was 38.3 µM; with SK-MEL-28 melanoma, 57.9 µM; with A549 NSCLC, 44.5 µM; in the assay with NCI-H226 lung it was 54.4 µM; in the assay on UACC-257 melanoma it was 54.3 µM; in the assay on SK-OV-3 ovarian, above 100 µM. Moreover, the TGI is 51.9 µM with IGROV1 ovarian, 58.2 µM with M14 melanoma, 97 µM in the assay with ACHN renal and 55.7 µM in the assay on HOP-92 NSCLC.
For `O=Cc1ccccc1OCCOc1cc(OCCOc2ccccc2C=O)c(OCCOc2ccccc2C=O)cc1OCCOc1ccccc1C=O`, the TGI in the assay with SF-539 CNS is above 79 µM; in the assay with SK-MEL-28 melanoma, above 100 µM; in the assay on A549 NSCLC it was above 100 µM; in the assay on NCI-H226 lung it was above 100 µM; in the assay on UACC-257 melanoma, above 100 µM; with SK-OV-3 ovarian it was above 100 µM. For the same compound, the TGI with IGROV1 ovarian is above 100 µM; in the assay on M14 melanoma it was above 100 µM; in the assay on ACHN renal it was above 92.5 µM; with HOP-92 NSCLC, above 79.8 µM.
Turning to `C=C(CCCCCCCCC)CC(=O)SCCNC(=O)CCNC(=O)C(O)C(C)(C)COP(=O)(O)OP(=O)(O)OCC1OC(n2cnc3c(N)ncnc32)C(O)C1OP(=O)(O)O` (stereo not given), the TGI in the assay with SF-539 CNS was above 85.6 µM; in the assay on SK-MEL-28 melanoma it was 21.6 µM; in the assay with A549 NSCLC, above 100 µM; with NCI-H226 lung, above 100 µM; with UACC-257 melanoma, above 100 µM; in the assay with SK-OV-3 ovarian, above 100 µM. In addition, the TGI is above 100 µM in the assay on IGROV1 ovarian, 65 µM in the assay on M14 melanoma, above 100 µM with ACHN renal and above 100 µM in the assay on HOP-92 NSCLC.
